According to PMC8945229, “Development and Biological Characterization of a Novel Selective TrkA Agonist with Neuroprotective Properties against Amyloid Toxicity” (Biomedicines, 2022):

Legend:
[1] = system: NIH-3T3-TrkB cells; assay: CellTox assay in serum-starved NIH-3T3-TrkB cells; type: cell-based; conditions: 24hrs
Description: (§1) treated with ENT-A013 (500nM) or Neurotrophin-3 (100ng/ml) for 30’ and then subjected to Western Blot against phosphorylated TrkC, Akt and Erk1/2. […]
(§2) phosphorylated any of those. (D) CellTox assay was performed in NIH-3T3-TrkB cells that were starved from serum and treated with ENT-A013 or BDNF for 24hrs. Quantification (E) […]
(§3) negative control (Serum Free).
(§4) Supplementary Figure S3: Primary DRG neurons were cultured in the presence of ENT-A013 (500nM, supplemented every 48hrs) and a neutralizing antibody against NGF for 5 days and then neurite length was measured by immunostaining against Tuj1 .
(§5) Supplementary Figure S4: Primary hippocampal neurons at 14-16 DIV were treated with oligomeric Aβ and in the presence of ENT-A013 (500nM, supplemented every 24hrs) for 48hrs and then were subjected to Western Blot against phosphorylated JNK. A representative blot […]

[2] = system: Akt and Erk1/2; assay: Akt and Erk1/2 phosphorylation in NIH-3T3 cells transfected with TrkB or TrkC; type: cell-based; conditions: 500 nM, 30′
Description: cells were stably transfected with TrkB and treated with ENT-A013 (500nM) or BDNF (500ng/ml) for 30’ and then subjected to Western Blot against phosphorylated TrkB and […]
either TrkB or Akt by ENT-A013. (C) NIH-3T3 cells were stably transfected with TrkC and (1 picture or pasted object on this page, not shown here) […]
as §1, §2, §3, §4, §5

[3] = biological target: T1, TrkC (Homo sapiens, UniProt Q16288); assay: TrkC phosphorylation in NIH-3T3 cells stably transfected with TrkC; type: cell-based; conditions: 500 nM, 30′
T1 construct: expressed in transfected cells
Description: For immunoprecipitation experiments PC12 or HEK293T, cells were used when at 70–80% confluent. Cells were starved of serum for 4 h and subsequently treated with 100 ng/mL NGF or 500 nM of compound ENT-A013 for 30′. Cells were then lysed in Pierce™ IP Lysis Buffer (87788, Thermo Fischer Scientific, Waltham, MA, USA) containing proteases (539138, Calbiochem, Darmstadt, Germany) and phosphatase inhibitors (524629, Calbiochem, Darmstadt, Germany). Lysates were then immunoprecipitated overnight at 4 °C with TrkA antibody (1:100, 06-574, Sigma-Aldrich, St. Louis, MO, USA) (Table S1) or p75^NTR antibody (1:100, ab6172, Abcam plc., Cambridge, UK) followed by 4 h incubation with protein G-plus agarose beads (sc-2002, Santa Cruz Biotechnology, Inc., Dallas, TX, USA). Beads were then collected, washed 3X with lysis buffer, resuspended in SDS loading buffer and subjected to Western blot against phosphorylated Tyrosine (1:1000, BAM1676, R&D Systems, Inc., Minneapolis, MN, USA) or Traf6 antibody (1:2000, ab33915, Abcam, plc., Cambridge, UK). […]
phosphorylated any of those. […] Quantification (E) […]
Supplementary Figure S3: Primary DRG neurons were cultured in the presence of ENT-A013 (500nM, supplemented every 48hrs) and a neutralizing antibody against NGF for 5 days and then neurite length was measured by immunostaining against Tuj1 . […]

[4] = system: Primary hippocampal neurons; assay: Synaptophysin synapse assay in primary hippocampal neurons treated with oligomeric Aβ; type: cell-based, mouse; conditions: 5 μM oligomeric Aβ, 500 nM, 4 h
Description: Primary hippocampal neurons were isolated from E17.5 mouse embryos (C57BL/6J, The Jackson Laboratory, Bar Harbor, ME, USA) as previously described and cultured with Neurobasal medium containing 2% B27, 1X GlutaMax, 10 mM HEPES and 1% PenStrep. Cells were maintained in a humified incubator at 37 °C and 5% CO2. For TUNEL assay, cells were left in culture for 16–18 days and then treated with 5 μM oligomeric Aβ along with ENT-A013 (500 nM, every 24 h) for 48 h. Cells were then fixed with 4% PFA and labelled with TUNEL (F. Hoffmann–La Roche Ltd., Basel, Switzerland, cat# 11684795910) following the manufacturer’s protocol. Subsequently, cells were immunostained against Tuj1 and imaged with confocal microscopy. For synaptic plasticity assay, cells were left in culture for 16–18 days and then treated with 5 μM oligomeric Aβ along with ENT-A013 (500 nM) for 4 h. Cells were then fixed with 4% PFA and immunostained against Tuj1 and Synaptophysin (1:1000, PA1-1043, Invitrogen, Waltham, MA, USA), anti-mouse Alexa fluor 488 (1:1000, A-11029, Invitrogen, Waltham, MA, USA) and anti-rabbit Alexa fluor 546 (1:1000, A10040, Invitrogen, Waltham, MA, USA). Images were acquired using confocal microscopy and the total area of synaptophysin positive puncta was measured and normalized to Tuj1 total area.

T1 sequence (Q16288 32-839, species assumed): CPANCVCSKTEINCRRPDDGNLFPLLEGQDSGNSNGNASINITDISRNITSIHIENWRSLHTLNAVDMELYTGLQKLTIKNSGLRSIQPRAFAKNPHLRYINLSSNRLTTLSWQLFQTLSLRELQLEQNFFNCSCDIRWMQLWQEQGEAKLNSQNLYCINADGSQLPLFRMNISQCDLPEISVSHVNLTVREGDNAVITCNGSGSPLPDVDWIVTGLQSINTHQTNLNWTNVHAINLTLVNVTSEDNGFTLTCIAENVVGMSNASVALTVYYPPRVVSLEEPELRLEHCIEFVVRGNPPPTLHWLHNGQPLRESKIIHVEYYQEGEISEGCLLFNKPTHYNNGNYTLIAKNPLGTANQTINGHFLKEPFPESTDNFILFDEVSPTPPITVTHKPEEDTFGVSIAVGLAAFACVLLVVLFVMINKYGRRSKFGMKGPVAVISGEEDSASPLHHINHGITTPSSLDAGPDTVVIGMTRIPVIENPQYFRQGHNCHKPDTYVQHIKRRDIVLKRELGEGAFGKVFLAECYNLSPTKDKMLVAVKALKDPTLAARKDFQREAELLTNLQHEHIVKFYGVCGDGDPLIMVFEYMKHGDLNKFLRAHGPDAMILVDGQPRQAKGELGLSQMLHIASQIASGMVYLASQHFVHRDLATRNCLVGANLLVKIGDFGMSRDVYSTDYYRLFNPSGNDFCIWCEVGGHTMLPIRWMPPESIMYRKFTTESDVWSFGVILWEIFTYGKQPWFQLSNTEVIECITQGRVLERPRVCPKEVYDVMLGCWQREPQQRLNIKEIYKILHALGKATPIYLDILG

CC12CCC(O)CC1=CCC1C2CCC2(C)C1CCC21CC1C=CBr [ENT-A013, (2′R,3S,17S)-2′-(2-Bromovinyl)-5-Androstene-17,1′-Cyclopropan-3-ol]
cell death vs negative control (Serum Free) (in words) [1]: no significant difference
Akt phosphorylation (in words) ([2]; NIH-3T3 TrkB cells): no significant difference in the phosphorylation
Akt and Erk1/2 phosphorylation (in words) ([2]; NIH-3T3 TrkC cells): failed to
TrkC phosphorylation (in words) [3]: did not induce phosphorylation
synapse number (synaptophysin area normalized to Tuj1 area) [4]: 1.08 ± 0.08 % of control FC
